Data: publication PMC5526551, “New hydrazonoindolin-2-ones: Synthesis, exploration of the possible anti-proliferative mechanism of action and encapsulation into PLGA microspheres” (PLoS ONE, 2017)
Like-named read-outs stand apart in the source and are kept apart here.

Assays:
HT-29 = experiment: Anti-proliferative activity, cell growth inhibition (CellTiterGlo, 72 h); format: cell-based, human; details: for inhibition at 30 µM: HT-29, read-out: Cell growth inhibitory activity, HT-29; for IC50: 72 h
Protocol: (§1) Twenty compounds, i.e. 4a-o and 7a-e, were analyzed for cancer cell growth inhibitory activity. These studies were carried out using cells derived from human lung, colon and breast tumors (A549, HT-29 and ZR-75 cells, respectively). This initial assessment of activity tested each compound in quadruplicate at a single concentration of 30 μM, if solubility permitted.
(§2) A549, HT-29, ZR-75 were obtained from the American Type Culture Collection (ATCC). Cells were harvested from 90-95% confluent 10 cm dishes, and diluted in growth media (RPMI-1640 supplemented with 5% fetal bovine serum). An appropriate concentration of cells were prepared to add 1,250 cells in a volume of 25 µL per well in tissue culture treated Griener 384-well microplates, then incubated overnight at 37°C. Compound 7e was diluted to a concentration of 30 µM in DMSO. Concentrated dosing solutions of twice the final concentration were prepared by dilution of the DMSO stocks 1:500 in growth media. Two-fold serial dilutions were then prepared in medium containing 0.2% DMSO to maintain a constant concentration of vehicle throughout the concentration range of the compound. Each of these was added in an equal volume (25 µL) to four wells on each cell assay plate, along with the vehicle control. The highest concentration for serial dilutions of the positive control (sunitinib) was prepared exactly as the experimental compound 7e. Cells were incubated with the compounds for a further 72 h.
(§3) At the end of the treatment period, assay plates were allowed to cool to RT for 10 min prior to the addition of 25 µL per well Promega CellTiterGlo reagent, followed by additional 10 min incubation at RT. The resulting luminescence was quantitated using a Molecular Devices Spectramax Paradigm.
(§4) Percent growth inhibition was calculated as follows, where 100 represents the viability of vehicle treated control samples:
(§5) The potency of compounds was determined using the non-linear dose response algorithm (four-parameter logistic fit) with GraphPad Prism 5 software.

ZR-75 = experiment: as above; format: cell-based, human; details: for inhibition at 30 µM: ZR75, read-out: Cell growth inhibitory activity, ZR-75
Protocol: as §1, §2, §3, §4, §5

A549 = experiment: as above; format: cell-based, human; details: for inhibition at 30 µM: A549, read-out: Cell growth inhibitory activity, A-549; for IC50: read-out: IC50 A-549
Protocol: as §1, §2, §3, §4, §5

[1] = system: HT-29, ZR-75 and A-549 cell lines; experiment: Average anti-proliferative activity over the three cancer cell lines; format: cell-based, human; details: average of HT-29, ZR-75, A-549; for inhibition at 30 µM: read-out: Average Growth Inhibition %; for inhibition at 30 µM / Average Growth Inhibition %: 30 μM
Protocol: as §1
Therefore, they were subjected to quantitative inhibitory concentration 50% (IC50) determination for their cell growth inhibitory activity towards the A549, HT-29 and ZR-75 cancer cell lines.
as §2, §5

NCI cell lines = system: NCI cell lines; set-up: method as in PMID 17073710, PMID 16860559; details: against 46 out of 53 NCI cell lines; cited from earlier work
[2] = molecular target: glycogen synthase kinase 3 beta (GSK-3β); details: read-out: IC50 GSK-3β; binding to the ATP pocket; cited from earlier work
[3] = system: cyclin-dependent kinases (CDKs); details: read-out: IC50 CDKs; binding to the ATP pocket; cited from earlier work
[4] = Homo sapiens, 30 μM, quadruplicate

| SMILES | melting point | inhibition at 30 µM (HT-29; [4]) | inhibition at 30 µM (ZR-75; [4]) | inhibition at 30 µM (A549; [4]) | inhibition at 30 µM ([1]; Homo sapiens) | other results |
| --- | --- | --- | --- | --- | --- | --- |
| COc1ccc(C=NN=C2C(=O)Nc3ccccc32)cc1 [Compound 4a, 3-((4-Methoxybenzylidene)hydrazono)indolin-2-one] | 277 to 279 °C | 19.5 ± 12.4% | 34.8 ± 23.7% | 27.1 ± 20.3% | 27.2% |  |
| COc1cc(C=NN=C2C(=O)Nc3ccccc32)ccc1O [Compound 4c, 3-((4-Hydroxy-3-methoxybenzylidene)hydrazono)indolin-2-one] |  | 74.9 ± 5.3% | 55.4 ± 23.4% | 54.2 ± 5% | 61.5% |  |
| COc1ccc(C=NN=C2C(=O)Nc3ccc(Cl)cc32)cc1 [Compound 4f, 5-Chloro-3-((4-methoxybenzylidene)hydrazono)indolin-2-one] | 282 to 284 °C | 6.1 ± 8.6% | 10.9 ± 14% | 8.4 ± 10% | 8.4% |  |
| COc1cc(C=NN=C2C(=O)Nc3ccc(Cl)cc32)ccc1O [Compound 4h, 5-Chloro-3-((4-hydroxy-3-methoxybenzylidene)hydrazono)indolin-2-one] | 269 to 271 °C | 41.6 ± 10.4% | 30.9 ± 9.5% | 37.3 ± 8.1% | 36.6% |  |
| COc1ccc(C=NN=C2C(=O)Nc3ccc(Cl)cc32)cc1OC [Compound 4i, 5-Chloro-3-((3,4-dimethoxybenzylidene)hydrazono)indolin-2-one] | 282 to 284 °C | -3.6 ± 9.7% | 33 ± 13% | 4.9 ± 3.3% | 11.4% |  |
| COc1ccc(C=NN=C2C(=O)Nc3ccc(Br)cc32)cc1O [Compound 4l, 5-Bromo-3-((3-hydroxy-4-methoxybenzylidene)hydrazono)indolin-2-one] | 278 to 280 °C | 45.9 ± 9.8% | 44.3 ± 18.4% | 46.6 ± 9.5% | 45.6% |  |
| COc1ccc(C=NN=C2C(=O)Nc3ccc(Br)cc32)cc1OC [Compound 4n, 5-Bromo-3-((3,4-dimethoxybenzylidene)hydrazono)indolin-2-one] | 280 to 282 °C | -2 ± 10.2% | 12.5 ± 21.9% | 0.1 ± 5.1% | 3.5% |  |
| CN1C(=O)C(=NN=C2C(=O)Nc3ccc(F)cc32)c2ccccc21 [Compound 7a, 5-Fluoro-3-((1-methyl-2-oxoindolin-3-ylidene)hydrazono)indolin-2-one] | 295 to 297 °C | 84.8 ± 3.6% | 78.6 ± 9.9% | 91.6 ± 4.8% | 85% |  |
| CN1C(=O)C(=NN=C2C(=O)Nc3ccc(Cl)cc32)c2ccccc21 [Compound 7b, 5-Chloro-3-((methyl-2-oxoindolin-3-ylidene)hydrazono)indolin-2-one] |  |  |  |  |  | Cell growth inhibitory activity, HT-29 (HT-29; 30 μM, quadruplicate): 95.5 ± 3.4%; IC50 (HT-29): 5.38 µM; Cell growth inhibitory activity, ZR-75 (ZR-75; 30 μM, quadruplicate): 95.5 ± 6.0%; IC50 (ZR-75; 72 h): 3.75 µM; Cell growth inhibitory activity, A-549 (A549; 30 μM, quadruplicate): 95.2 ± 2.8%; IC50 (A549; 72 h): 5.19 µM; Average Growth Inhibition % [1]: 95.4%; IC50 [1]: 4.77 µM |
| O=C1Nc2ccccc2C1=NN=C1C(=O)N(Cc2ccccc2)c2ccccc21 [Compound 7c, 1-Benzyl-3-((oxoindolin-3-ylidene)hydrazono)indolin-2-one] | 255 to 257 °C | 73.8 ± 4.4% | 92.1 ± 3.8% | 86.6 ± 9.9% | 84.2% |  |
| Cc1cc(C)c(/C=C2\C(=O)Nc3ccccc32)[nH]1 [Semaxanib] |  |  |  |  |  | GI50 (NCI cell lines): < 0.01 µM |
| O=C1Nc2ccccc2/C1=C1/Nc2ccccc2C1=O [indirubin, Indirubin] |  |  |  |  |  | IC50 [2]: […]; IC50 [3]: 75 µM |

The next lines start with results.

| melting point | SMILES | inhibition at 30 µM (HT-29; [4]) | inhibition at 30 µM (ZR-75; [4]) | inhibition at 30 µM (A549; [4]) | inhibition at 30 µM ([1]; Homo sapiens) | other results |
| --- | --- | --- | --- | --- | --- | --- |
| 273 to 275 °C | COc1ccc(C=NN=C2C(=O)Nc3ccccc32)cc1O [Compound 4b, 3-((3-Hydroxy-4-methoxybenzylidene)hydrazono)indolin-2-one] | 81.9 ± 3% | 59.3 ± 11.1% | 66.3 ± 5.7% | 69.2% |  |
| 276 to 278 °C | COc1ccc(C=NN=C2C(=O)Nc3ccccc32)cc1OC [Compound 4d, 3-((3,4-Dimethoxybenzylidene)hydrazono)indolin-2-one] | 81.7 ± 5.2% | 58.8 ± 4.3% | 82.5 ± 6.9% | 74.3% |  |
| 240 to 241 °C | COc1cc(C=NN=C2C(=O)Nc3ccccc32)cc(OC)c1OC [Compound 4e, 3-((3,4,5-Trimethoxybenzylidene)hydrazono)indolin-2-one] | 81.9 ± 5.4% | 86.1 ± 3.8% | 93.6 ± 3.6% | 87.2% |  |
| 278 to 280 °C | COc1ccc(C=NN=C2C(=O)Nc3ccc(Cl)cc32)cc1O [Compound 4g, 5-Chloro-3-((3-hydroxy-4-methoxybenzylidene)hydrazono)indolin-2-one] | 33.5 ± 11.3% | 46 ± 6.4% | 44.2 ± 16.5% | 41.2% |  |
| 245 to 247 °C | COc1cc(C=NN=C2C(=O)Nc3ccc(Cl)cc32)cc(OC)c1OC [Compound 4j, 5-Chloro-3-((3,4,5-trimethoxybenzylidene)hydrazono)indolin-2-one] | 6.9 ± 4.2% | 18.1 ± 21.2% | 1.7 ± 17.5% | 8.9% |  |
| 290 to 292 °C | COc1ccc(C=NN=C2C(=O)Nc3ccc(Br)cc32)cc1 [Compound 4k, 5-Bromo-3-((4-methoxybenzylidene)hydrazono)indolin-2-one] | -0.6 ± 7.2% | -5.3 ± 18.1% | -6.9 ± 9.4% | -4.3% | Average Growth Inhibition % [1]: stimulated the growth |
| 285 to 287 °C | COc1cc(C=NN=C2C(=O)Nc3ccc(Br)cc32)ccc1O [Compound 4m, 5-Bromo-3-((4-hydroxy-3-methoxybenzylidene)hydrazono)indolin-2-one] | 42.1 ± 1.8% | 58.7 ± 16% | 83.7 ± 10.3% | 61.5% |  |
| 261 to 263 °C | COc1cc(C=NN=C2C(=O)Nc3ccc(Br)cc32)cc(OC)c1OC [Compound 4o, 5-Bromo-3-((3,4,5-trimethoxybenzylidene)hydrazono)indolin-2-one] | -1.1 ± 9% | 3.1 ± 8.2% | -3.4 ± 6.6% | -0.5% | Average Growth Inhibition % [1]: stimulated the growth |
| 258 to 260 °C | O=C1Nc2ccc(Cl)cc2C1=NN=C1C(=O)N(Cc2ccccc2)c2ccccc21 [Compound 7d, 1-Benzyl-3-((5-chloro-2-oxoindolin-3-ylidene)hydrazono)indolin-2-one] | 97 ± 1.8% | 97.8 ± 1.8% | 98.4 ± 0.6% | 97.7% | IC50 (HT-29): 3.62 µM; IC50 (HT-29; Homo sapiens, HT-29, 72 h): 3.82 µM; IC50 (ZR-75; Homo sapiens, ZR75, 72 h): 2.42 µM; IC50 (A549; Homo sapiens, A549, 72 h): 4.13 µM; IC50 ([1]; Homo sapiens): 3.39 µM |
